Experimental findings from ChEMBL document CHEMBL4152340, “Targeting the MDM2-p53 protein-protein interaction with prenylchalcones: Synthesis of a small library and evaluation of potential antitumor activity” (Eur J Med Chem, 2018) are described below.

Data set [1] has as its system HCT-116. Nature of the data set: Antiproliferative activity against human HCT116 cells after 48 hrs by SRB assay. Conditions: HCT-116, 48 h. The format is functional, cell-based. A general note: In SRB staining, fixed cells bind dye roughly in proportion to their protein.
For data set [2], the system named is Saccharomyces cerevisiae. Nature of the data set: Growth inhibition of Saccharomyces cerevisiae expressing MDM2 at 1 to 50 uM after 42 hrs by Yeast-based assay. Conditions: in vivo. In kind it is organism-based.
Data set [3] has as its system Saccharomyces cerevisiae. Nature of the data set: Growth inhibition of Saccharomyces cerevisiae expressing p53 at 1 to 50 uM after 42 hrs by Yeast-based assay. Conditions: in vivo. In kind it is organism-based.
Data set [4] addresses T1, Tumour suppressor p53/oncoprotein Mdm2 (Homo sapiens) (UniProt P04637+Q00987). Nature of the data set: Inhibition of human MDM2-p53 interaction in Saccharomyces cerevisiae assessed as p53 induced cell growth arrest at 1 to 50 uM after 42 hrs by Yeast-based assay. In kind it is protein assay.
The subject of data set [5] is Saccharomyces cerevisiae. Nature of the data set: Growth inhibition of Saccharomyces cerevisiae expressing empty vector at 1 to 50 uM after 42 hrs by Yeast-based assay. In kind it is organism-based. Conditions: in vivo.
Data set [6] concerns the target T1, Tumour suppressor p53/oncoprotein Mdm2 (Homo sapiens). Nature of the data set: Inhibition of MDM2-p53 interaction in human HCT116 cells assessed as p53 activation by measuring increase in cleaved-PARP level at 4.2 uM after 48 hrs by Western blot analysis. The format is cell-based. For orientation: In western blotting, separated proteins are transferred to a membrane and probed.

For data set [7] the target is unchanged. Nature of the data set: Inhibition of MDM2-p53 interaction in human HCT116 cells assessed as p53 activation by measuring increase in PUMA level at 4.2 uM after 48 hrs by Western blot analysis. In kind it is cell-based.
Data set [8] deals with HCT-116. Nature of the data set: Anticlonogenic activity against human HCT116 cells after 11 days by crystal violet staining based assay. The format is functional, cell-based. Conditions: HCT-116, 264 h.
The nature of data set [9]: Selectivity ratio of IC50 for human HFF to IC50 for human A375 cells. In kind it is toxicity. Conditions: HFF cells versus A375 cells, read-out: Ratio IC50.
In data set [10] the target is T1, Tumour suppressor p53/oncoprotein Mdm2 (Homo sapiens). Nature of the data set: Inhibition of MDM2-p53 interaction in human HCT116 cells assessed as p53 activation by measuring decrease in Bcl-2 level at 4.2 uM after 48 hrs by Western blot analysis. The format is cell-based.
Data set [11] shares this target. Nature of the data set: Inhibition of MDM2-p53 interaction in human HCT116 cells assessed as p53 activation by measuring increase in GADD45 level at 4.2 uM after 48 hrs by Western blot analysis. The format is cell-based.
The subject of data set [12] is HCT-116. Nature of the data set: Induction of apoptosis in human HCT116 cells at 4.2 uM after 48 hrs by annexin V/FITC-propidium iodide staining-based flow cytometric method. In kind it is functional, cell-based.
Data set [13] in a line: Selectivity ratio of IC50 for human HFF to IC50 for human HCT116 cells. As to conditions: HFF cells versus HCT116 cells, read-out: Ratio IC50. The format is toxicity.
Data set [14] deals with MCF7. Nature of the data set: Antiproliferative activity against human MCF7 cells after 48 hrs by SRB assay. In kind it is functional, cell-based. Conditions: MCF7, 48 h.
Data set [15] deals with A-375. Nature of the data set: Antiproliferative activity against human A375 cells after 48 hrs by SRB assay. In kind it is functional, cell-based. Conditions: A-375, 48 h.
Data set [16] in a line: Selectivity ratio of IC50 for human HFF to IC50 for human MCF7 cells. In kind it is toxicity. Conditions: HFF cells versus MCF7 cells, read-out: Ratio IC50.
For data set [17], the target named is T1, Tumour suppressor p53/oncoprotein Mdm2 (Homo sapiens). Nature of the data set: Inhibition of MDM2-p53 interaction in human HCT116 cells assessed as p53 activation by measuring increase in MDM2 expression at 4.2 uM after 48 hrs by Western blot analysis. In kind it is cell-based.
Data set [18] deals with HCT-116. Nature of the data set: Induction of mitochondrial ROS generation in human HCT116 cells at 4.2 uM after 48 hrs by MitoSOX dye-based flow cytometric analysis. The format is functional, cell-based. In general terms: A flow cytometer gives signals particle by particle.
In data set [19] the target is T1, Tumour suppressor p53/oncoprotein Mdm2 (Homo sapiens). Nature of the data set: Inhibition of MDM2-p53 interaction in human HCT116 cells assessed as p53 activation by measuring increase in p21 level at 4.2 uM after 48 hrs by Western blot analysis. The format is cell-based.
The subject of data set [20] is HepG2. Nature of the data set: Antiproliferative activity against human HepG2 cells after 48 hrs by SRB assay. In kind it is functional, cell-based. Conditions: HepG2, 48 h.
A short description of data set [21]: Selectivity ratio of IC50 for human HFF to IC50 for human HepG2 cells. In kind it is toxicity. As to conditions: HFF cells versus HepG2 cells, read-out: Ratio IC50.
The test system of data set [22] is HCT-116. Nature of the data set: Cell cycle arrest in human HCT116 cells assessed as accumulation at G2/M phase at 4.2 uM after 48 hrs by propidium iodide staining-based flow cytometric analysis. The format is functional.
Data set [23] concerns Saccharomyces cerevisiae. Nature of the data set: Growth inhibition of Saccharomyces cerevisiae expressing empty vector at 10 uM after 42 hrs by Yeast-based assay. As to conditions: in vivo. The format is organism-based.
Data set [24] has as its system Saccharomyces cerevisiae. Nature of the data set: Growth inhibition of Saccharomyces cerevisiae expressing p53 at 10 uM after 42 hrs by Yeast-based assay. In kind it is organism-based. Conditions: in vivo.
Data set [25] has as its system Saccharomyces cerevisiae. Nature of the data set: Growth inhibition of Saccharomyces cerevisiae expressing MDM2 at 10 uM after 42 hrs by Yeast-based assay. The format is organism-based. Conditions: in vivo.

Active and inactive are the calls of the source. No cut-off for these calls is given here.

T1 sequence (P04637 whole entry, looked up): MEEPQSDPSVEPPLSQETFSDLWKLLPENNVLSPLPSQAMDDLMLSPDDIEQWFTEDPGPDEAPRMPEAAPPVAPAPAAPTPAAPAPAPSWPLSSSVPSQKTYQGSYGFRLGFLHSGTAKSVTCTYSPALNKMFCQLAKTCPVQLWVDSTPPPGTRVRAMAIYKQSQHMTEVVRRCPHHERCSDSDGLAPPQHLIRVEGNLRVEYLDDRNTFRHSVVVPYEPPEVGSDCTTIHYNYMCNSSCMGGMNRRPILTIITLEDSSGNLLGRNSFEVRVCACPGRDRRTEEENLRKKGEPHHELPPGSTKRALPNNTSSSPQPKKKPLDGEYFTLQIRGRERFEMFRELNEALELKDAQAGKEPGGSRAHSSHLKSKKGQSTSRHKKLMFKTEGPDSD
T1 sequence (Q00987 whole entry, looked up): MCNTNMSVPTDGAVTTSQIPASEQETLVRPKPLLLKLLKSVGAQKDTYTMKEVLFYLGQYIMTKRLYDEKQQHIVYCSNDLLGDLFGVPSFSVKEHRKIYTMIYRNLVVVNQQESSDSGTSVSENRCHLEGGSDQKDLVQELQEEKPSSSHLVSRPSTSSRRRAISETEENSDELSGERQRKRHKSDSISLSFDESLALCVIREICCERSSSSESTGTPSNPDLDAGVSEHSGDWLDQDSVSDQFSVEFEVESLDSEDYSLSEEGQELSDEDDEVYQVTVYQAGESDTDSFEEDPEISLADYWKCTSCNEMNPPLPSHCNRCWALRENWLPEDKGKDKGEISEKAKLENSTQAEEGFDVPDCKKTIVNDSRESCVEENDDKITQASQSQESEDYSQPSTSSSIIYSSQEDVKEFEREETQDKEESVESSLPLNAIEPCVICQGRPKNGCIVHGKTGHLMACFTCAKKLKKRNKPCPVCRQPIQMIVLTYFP

In turn, `COc1cc(OCC=C(C)C)c(C(=O)/C=C/c2cc(OC)c(OC)c(OC)c2)c(OC)c1CC=C(C)C` returned an IC50 in data set [1] of 4.2 µM.
In data set [1], `COc1ccc(/C=C/C(=O)c2c(OCC=C(C)C)cc(OC)c(CC=C(C)C)c2OC)cc1OC` returned an IC50 of 7.4 µM.
Same read-out and setting: for `COc1cc(OC)c(C(=O)/C=C/c2cccc(Cl)c2Cl)c(OCC=C(C)C)c1` the value was 1.9 µM; for `COc1cc(OC)c(C(=O)/C=C/c2cc(OC)c(OC)c(OC)c2)c(OCC=C(C)C)c1CC=C(C)C`, 2.9 µM; for `COc1cccc(/C=C/C(=O)c2c(OC)cc(OC)cc2OCC=C(C)C)c1`, 7.7 µM.
`COc1cc(OC)c(C(=O)/C=C/c2cccc(OC)c2OC)c(OCC=C(C)C)c1`: it took 11.7 µM to reach half-maximal inhibition in data set [1] (IC50). Also, the “growth inhibition (GI)” value in data set [2], in [3] and in data set [5] was “Non-Toxic” each time. For the same compound, the inhibition result in [4] was “Active”.
For `COc1cc(O)c(C(=O)/C=C/c2ccc(F)cc2)c(OC)c1`, in data set [1], the IC50 came to 4.4 µM.
In data set [1], `COc1cc(/C=C/C(=O)c2c(OC)cc(OC)cc2OCC=C(C)C)cc(OC)c1` gave an IC50 of 3.5 µM.
Same read-out and setting: for `COc1cc(O)c(C(=O)/C=C/c2cc(Cl)cc(Cl)c2)c(OC)c1` the value was 1.9 µM.
In the case of `COc1cc(O)c(C(=O)/C=C/c2cccc(OC)c2OC)c(OC)c1`, in [1], it took 3.5 µM to reach half-maximal inhibition (IC50).
In [1], `COc1ccc(/C=C/C(=O)c2c(OC)cc(OC)cc2OCC=C(C)C)cc1` had an IC50 of 7.6 µM.
Take `COc1cc(OC)c(C(=O)/C=C/c2ccc(Br)cc2)c(OCC=C(C)C)c1`: the inhibition entry in data set [6], in [7], in [10], in [11], in data set [4] and in data set [17] was “Active” each time. For the same compound, the inhibition entry in [19] is “Active”. Also, the IC50 came out at 2.1 µM in data set [1]; 0.17 µM in data set [8]; 2.8 µM in [14]; 1.6 µM in data set [15]; 3.6 µM in data set [20]. Further, the selectivity ratio in [9], in [13], in [16] and in [21] was 3 in each case. Further, the “growth inhibition (GI)” value in data set [2], in data set [3] and in data set [5] was “Non-Toxic” in each case. The outcome in [12], in [18] and in data set [22] was Active.
In the case of `COc1ccc(/C=C/C(=O)c2c(O)cc(OC)cc2OC)c(OC)c1`, in data set [1], the IC50 amounted to 50 µM. Further, the “growth inhibition (GI)” value in data set [2], in [3] and in data set [5] was “Non-Toxic” each time. In addition, in data set [4], the inhibition result was “Active”.
Take `COc1cc(O)c(C(=O)/C=C/c2ccc(OC)c(OC)c2)c(OC)c1`: the IC50 in data set [1] came out at 27.6 µM.
Compound `COc1cccc(/C=C/C(=O)c2c(O)cc(OC)cc2OC)c1` came in with an IC50 in [1] of 3.1 µM.
In data set [1], `COc1cc(OC)c(C(=O)/C=C/c2ccc(F)cc2)c(OCC=C(C)C)c1` registered an IC50 of 3.2 µM.
In [1], `COc1ccc(/C=C/C(=O)c2c(O)cc(OC)cc2OC)cc1` [FLAVOKAWAIN A] showed an IC50 of 10.6 µM. The “growth inhibition (GI)” value in [2], in data set [3] and in [5] was “Non-Toxic” throughout. The inhibition entry in data set [4] is “Active”.
`COc1cc(O)c(C(=O)/C=C/c2cccc(OC)c2OC)c(OC)c1CC=C(C)C`: inhibition in [1] was half-maximal at 29.5 µM (IC50). Moreover, the “growth inhibition (GI)” value in data set [2], in data set [3] and in [5] was “Non-Toxic” each time. Moreover, the inhibition entry in [4] was “Active”.
`COc1cc(OC)c(C(=O)/C=C/c2cc(Cl)cc(Cl)c2)c(OCC=C(C)C)c1` registered an IC50 in [1] of 24.5 µM.
`COc1ccc(C2=N[C@@H](c3ccc(Cl)cc3)[C@@H](c3ccc(Cl)cc3)N2C(=O)N2CCNC(=O)C2)c(OC(C)C)c1` [NUTLIN-3]: the “growth inhibition (GI)” value in data set [23], in data set [24] and in data set [25] was “Non-Toxic” throughout.
As for `COc1cc(OC)c(C(=O)/C=C/c2ccc(OC)c(OC)c2)c(OCC=C(C)C)c1`, the IC50 in [1] was 5.7 µM.
`COc1cccc(/C=C/C(=O)c2c(O)c(CC=C(C)C)c(OC)c(CC=C(C)C)c2OC)c1OC`: the IC50 in data set [1] was found to be 15.3 µM.
With `COc1cc(O)c(C(=O)/C=C/c2ccc(Br)cc2)c(OC)c1`, the half-maximal inhibitory concentration (IC50) in [1] is 14 µM.
Turning to `COc1cc(O)c(C(=O)/C=C/c2cccc(Cl)c2Cl)c(OC)c1`, the IC50 in data set [1] came to 2.7 µM.

The IC50 is the concentration that inhibits the measured activity by half.
